Reference: ChEMBL document CHEMBL2434908, “Synthesis and antibacterial evaluation of 3,3-diindolylmethane derivatives” (Med Chem Res, 2013)
Values after ≈ are worked out from the molar mass of the structure shown.

Experiments:
[1] = tested on: Proteus mirabilis; assay: Antibacterial activity against Proteus mirabilis assessed as growth inhibition by agar plate method; assay type: functional
[2] = tested on: Pseudomonas aeruginosa; assay: Antibacterial activity against Pseudomonas aeruginosa assessed as growth inhibition by agar plate method; assay type: functional
[3] = tested on: Arthrobacter protophormiae; assay: Antibacterial activity against Arthrobacter protophormiae assessed as growth inhibition by agar plate method; assay type: functional; details: Glutamicibacter protophormiae
[4] = tested on: Shigella flexneri; assay: Antibacterial activity against Shigella flexneri assessed as growth inhibition by agar plate method; assay type: functional
[5] = tested on: Rhodococcus; assay: Antibacterial activity against Rhodococcus Sp. assessed as growth inhibition by agar plate method; assay type: functional
[6] = tested on: Lactococcus lactis; assay: Antibacterial activity against Lactococcus lactis assessed as growth inhibition by agar plate method; assay type: functional
[7] = tested on: Staphylococcus aureus; assay: Antibacterial activity against Staphylococcus aureus assessed as growth inhibition by agar plate method; assay type: functional
[8] = tested on: Escherichia coli; assay: Antibacterial activity against Escherichia coli assessed as growth inhibition by agar plate method; assay type: functional
[9] = tested on: Bacillus subtilis; assay: Antibacterial activity against Bacillus subtilis assessed as growth inhibition by agar plate method; assay type: functional
[10] = Hemolytic activity in human RBC up to 200 ug/mL after 1 hr by spectrophotometric analysis relative to control; assay type: ADME, cell-based, Erythrocyte; details: human red blood cells, read-out: Activity
[11] = tested on: Mycolicibacterium smegmatis; assay: Antibacterial activity against Mycobacterium smegmatis assessed as growth inhibition by agar plate method; assay type: functional
[12] = Hemolytic activity in human RBC at 12.5 ug/mL after 1 hr by spectrophotometric analysis relative to control; assay type: ADME, cell-based, Erythrocyte; details: human red blood cells, read-out: Activity
[13] = Hemolytic activity in human RBC up to 400 ug/mL after 1 hr by spectrophotometric analysis relative to control; assay type: ADME, cell-based, Erythrocyte

Compound	MIC [1]	MIC [2]	MIC [3]	MIC [4]	MIC [5]	MIC [6]	MIC [7]	MIC [8]	MIC [9]	hemolysis at 1 h [10]	MIC [11]	hemolysis at 1 h, 12.5 ug/mL [12]	hemolysis at 1 h ([13]; human red blood cells, read-out: Activity)	Activity ([13]; erythrocyte, 1 h)
Oc1ccccc1C(c1c[nH]c2ccccc12)c1c[nH]c2ccccc12	15.5 µg/mL (≈ 45.8 µM)	62.5 µg/mL (≈ 185 µM)	15.5 µg/mL (≈ 45.8 µM)	15.5 µg/mL (≈ 45.8 µM)	7.5 µg/mL (≈ 22.2 µM)	31.2 µg/mL (≈ 92.2 µM)	15.5 µg/mL (≈ 45.8 µM)	15.5 µg/mL (≈ 45.8 µM)	15.5 µg/mL (≈ 45.8 µM)	20%	6.5 µg/mL (≈ 19.2 µM)			
c1coc(C(c2c[nH]c3ccccc23)c2c[nH]c3ccccc23)c1	31.2 µg/mL (≈ 99.9 µM)	31.2 µg/mL (≈ 99.9 µM)	31.2 µg/mL (≈ 99.9 µM)	31.2 µg/mL (≈ 99.9 µM)	31.2 µg/mL (≈ 99.9 µM)	62.5 µg/mL (≈ 200 µM)	125 µg/mL (≈ 400 µM)	62.5 µg/mL (≈ 200 µM)	125 µg/mL (≈ 400 µM)		15.5 µg/mL (≈ 49.6 µM)	50%		
CN(C)c1ccc(C(c2c[nH]c3ccccc23)c2c[nH]c3ccccc23)cc1	> 500 µg/mL	> 500 µg/mL	> 500 µg/mL	> 500 µg/mL	> 500 µg/mL	> 500 µg/mL	> 500 µg/mL	> 500 µg/mL	> 500 µg/mL		> 500 µg/mL			
c1cncc(C(c2c[nH]c3ccccc23)c2c[nH]c3ccccc23)c1	15.5 µg/mL (≈ 47.9 µM)	31.2 µg/mL (≈ 96.5 µM)	15.5 µg/mL (≈ 47.9 µM)	15.5 µg/mL (≈ 47.9 µM)	6.5 µg/mL (≈ 20.1 µM)	15.5 µg/mL (≈ 47.9 µM)	32.2 µg/mL (≈ 99.6 µM)	31.2 µg/mL (≈ 96.5 µM)	15.5 µg/mL (≈ 47.9 µM)	20%	31.2 µg/mL (≈ 96.5 µM)			
OC[C@@H](O)[C@H](O)[C@H](O)[C@@H](O)C(c1c[nH]c2ccccc12)c1c[nH]c2ccccc12	> 500 µg/mL	> 500 µg/mL	> 500 µg/mL	> 500 µg/mL	> 500 µg/mL	> 500 µg/mL	> 500 µg/mL	> 500 µg/mL	> 500 µg/mL		> 500 µg/mL			
OC[C@@H](O)[C@@H](O)[C@@H](O)C(c1c[nH]c2ccccc12)c1c[nH]c2ccccc12	31.2 µg/mL (≈ 85.1 µM)	62.5 µg/mL (≈ 171 µM)	62.5 µg/mL (≈ 171 µM)	31.2 µg/mL (≈ 85.1 µM)	15.5 µg/mL (≈ 42.3 µM)	62.5 µg/mL (≈ 171 µM)	62.5 µg/mL (≈ 171 µM)	62.5 µg/mL (≈ 171 µM)	125 µg/mL (≈ 341 µM)		31.2 µg/mL (≈ 85.1 µM)		15%	
OC[C@@H](O)[C@@H](O)[C@H](O)[C@@H](O)C(c1c[nH]c2ccccc12)c1c[nH]c2ccccc12	> 500 µg/mL	> 500 µg/mL	> 500 µg/mL	> 500 µg/mL	> 500 µg/mL	> 500 µg/mL	> 500 µg/mL	> 500 µg/mL	> 500 µg/mL		> 500 µg/mL			
OC[C@@H](O)[C@@H](O)[C@H](O)[C@H](O)C(c1c[nH]c2ccccc12)c1c[nH]c2ccccc12	> 500 µg/mL	> 500 µg/mL	> 500 µg/mL	> 500 µg/mL	> 500 µg/mL	> 500 µg/mL	> 500 µg/mL	> 500 µg/mL	> 500 µg/mL		> 500 µg/mL			
COc1ccc2[nH]cc(Cc3c[nH]c4ccc(OC)cc34)c2c1	> 500 µg/mL	> 500 µg/mL	> 500 µg/mL	> 500 µg/mL	> 500 µg/mL	> 500 µg/mL	> 500 µg/mL	> 500 µg/mL	> 500 µg/mL		> 500 µg/mL			
c1ccc(-c2[nH]c3ccccc3c2Cc2c(-c3ccccc3)[nH]c3ccccc23)cc1	> 500 µg/mL	> 500 µg/mL	> 500 µg/mL	> 500 µg/mL	> 500 µg/mL	> 500 µg/mL	> 500 µg/mL	> 500 µg/mL	> 500 µg/mL		> 500 µg/mL			
Cc1[nH]c2ccccc2c1Cc1c(C)[nH]c2ccccc12	> 500 µg/mL	> 500 µg/mL	> 500 µg/mL	> 500 µg/mL	> 500 µg/mL	> 500 µg/mL	> 500 µg/mL	> 500 µg/mL	> 500 µg/mL		> 500 µg/mL			
c1ccc2c(C(c3c[nH]c4ccccc34)c3c[nH]c4ccccc34)c[nH]c2c1	250 µg/mL (≈ 692 µM)	125 µg/mL (≈ 346 µM)	125 µg/mL (≈ 346 µM)	250 µg/mL (≈ 692 µM)	31.2 µg/mL (≈ 86.3 µM)	500 µg/mL (≈ 1380 µM)	250 µg/mL (≈ 692 µM)	125 µg/mL (≈ 346 µM)	250 µg/mL (≈ 692 µM)	20%	31.2 µg/mL (≈ 86.3 µM)			Toxic
c1ccc2c(Cc3c[nH]c4ccccc34)c[nH]c2c1 [ARUNDINE]	250 µg/mL (≈ 1010 µM)	250 µg/mL (≈ 1010 µM)	125 µg/mL (≈ 507 µM)	125 µg/mL (≈ 507 µM)	125 µg/mL (≈ 507 µM)	500 µg/mL (≈ 2030 µM)	250 µg/mL (≈ 1010 µM)	250 µg/mL (≈ 1010 µM)	250 µg/mL (≈ 1010 µM)	20%	125 µg/mL (≈ 507 µM)			
CN[C@@H]1[C@H](O[C@H]2[C@H](O[C@H]3[C@H](O)[C@@H](O)[C@H](N=C(N)N)[C@@H](O)[C@@H]3N=C(N)N)O[C@@H](C)[C@]2(O)C=O)O[C@@H](CO)[C@H](O)[C@H]1O [STREPTOMYCIN]	1.25 µg/mL (≈ 2.15 µM)	3.15 µg/mL (≈ 5.42 µM)	0.75 µg/mL (≈ 1.29 µM)	6.25 µg/mL (≈ 10.7 µM)	0.75 µg/mL (≈ 1.29 µM)	1.5 µg/mL (≈ 2.58 µM)	12.5 µg/mL (≈ 21.5 µM)	6.25 µg/mL (≈ 10.7 µM)	1.5 µg/mL (≈ 2.58 µM)		1.25 µg/mL (≈ 2.15 µM)			
